Laboratory results published in the supplement of paper PMC10307832.

Legend:
Assay in all cases: relative viability (nuclei count vs DMSO), 5 days (fraction); higher = more cells survive
Carboplatin + Pemetrexed = compound: C1CC(C1)(C(=O)O)C(=O)O.[NH2-].[NH2-].[Pt+2] [Carboplatin] + Nc1nc2[nH]cc(CCc3ccc(C(=O)N[C@@H](CCC(=O)O)C(=O)O)cc3)c2c(=O)[nH]1 [Pemetrexed] (partner 0.2 µM)
In short: (§1)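 Relative viability divides the nuclei count in treated wells by that in vehicle wells. Lung cancer cell lines were seeded in 1536-well plates, dosed by pin tool the next day, and fixed and stained after 5 days in one step with final 0.05% Triton X-100, 1% formaldehyde and 1 ug/ml Hoechst. Dosing was a single drug or a fixed anchor-drug dose plus five library-drug doses (not always all listed) in √10 steps, and values are medians of duplicate plates imaged at 4×.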

MLN4924 + Alpelisib = compound: NS(=O)(=O)OC[C@@H]1C[C@@H](n2ccc3c(N[C@H]4CCc5ccccc54)ncnc32)C[C@@H]1O [MLN4924] + Cc1nc(NC(=O)N2CCC[C@H]2C(N)=O)sc1-c1ccnc(C(C)(C)C(F)(F)F)c1 [Alpelisib] (partner 2 µM)
In short: as §1

GSK126 + Foretinib = compound: CC[C@H](C)N1C=C(C2=C(C=C(C=C21)C3=CN=C(C=C3)N4CCNCC4)C(=O)NCC5=C(C=C(NC5=O)C)C)C [GSK126] + COc1cc2c(Oc3ccc(NC(=O)C4(C(=O)Nc5ccc(F)cc5)CC4)cc3F)ccnc2cc1OCCCN1CCOCC1 [Foretinib] (partner 0.25 µM)
In short: as §1

GSK126 + Pictilisib = compound: CC[C@H](C)N1C=C(C2=C(C=C(C=C21)C3=CN=C(C=C3)N4CCNCC4)C(=O)NCC5=C(C=C(NC5=O)C)C)C [GSK126] + CS(=O)(=O)N1CCN(Cc2cc3nc(-c4cccc5[nH]ncc45)nc(N4CCOCC4)c3s2)CC1 [Pictilisib] (partner 1 µM)
In short: as §1

| Cell Line | relative viability (Carboplatin + Pemetrexed; first compound 0.08 µM) | relative viability (Carboplatin + Pemetrexed; first compound 0.253 µM) | relative viability (Carboplatin + Pemetrexed; first compound 0.8 µM) | relative viability (Carboplatin + Pemetrexed; first compound 2.53 µM) | relative viability (Carboplatin + Pemetrexed; first compound 8 µM) | relative viability (MLN4924 + Alpelisib; first compound 0.04 µM) | relative viability (MLN4924 + Alpelisib; first compound 0.1265 µM) | relative viability (MLN4924 + Alpelisib; first compound 0.4 µM) | relative viability (MLN4924 + Alpelisib; first compound 1.265 µM) | relative viability (MLN4924 + Alpelisib; first compound 4 µM) | relative viability (GSK126 + Foretinib; first compound 0.08 µM) | relative viability (GSK126 + Foretinib; first compound 0.253 µM) | relative viability (GSK126 + Foretinib; first compound 0.8 µM) | relative viability (GSK126 + Foretinib; first compound 2.53 µM) | relative viability (GSK126 + Foretinib; first compound 8 µM) | relative viability (GSK126 + Pictilisib; first compound 0.08 µM) | relative viability (GSK126 + Pictilisib; first compound 0.253 µM) | relative viability (GSK126 + Pictilisib; first compound 0.8 µM) | relative viability (GSK126 + Pictilisib; first compound 2.53 µM) | relative viability (GSK126 + Pictilisib; first compound 8 µM) |
| --- | --- | --- | --- | --- | --- | --- | --- | --- | --- | --- | --- | --- | --- | --- | --- | --- | --- | --- | --- | --- |
| NCI-H2405 | 1.16 | 1.03 | 1.05 | 0.977 | 0.737 | 1.02 | 0.933 | 0.517 | 0.196 | 0.215 | 1.03 | 1 | 1.02 | 1.06 | 1.02 | 0.427 | 0.385 | 0.437 | 0.452 | 0.397 |
| NCI-H3122 | 0.198 | 0.202 | 0.189 | 0.191 | 0.183 | 0.799 | 0.452 | 0.251 | 0.188 | 0.133 | 0.983 | 1.03 | 0.985 | 1.01 | 0.994 | 0.61 | 0.597 | 0.595 | 0.684 | 0.703 |
| PC-3 [JPC-3] | 1.28 | 0.986 | 1.02 | 0.939 | 0.889 | 0.996 | 0.963 | 0.896 | 0.327 | 0.266 | 1.02 | 1.02 | 1.02 | 1.01 | 0.997 | 0.808 | 0.795 | 0.814 | 0.781 | 0.762 |
| PC-14 | 0.127 | 0.131 | 0.143 | 0.11 | 0.0992 | 0.929 | 0.904 | 0.826 | 0.177 | 0.0924 | 0.914 | 0.886 | 0.924 | 0.908 | 0.918 | 0.684 | 0.667 | 0.59 | 0.693 | 0.656 |
| RERF-LC-KJ | 0.492 | 0.475 | 0.479 | 0.458 | 0.438 | 0.89 | 0.815 | 0.206 | 0.183 | 0.237 | 0.955 | 0.893 | 0.852 | 0.897 | 0.825 | 0.551 | 0.554 | 0.589 | 0.529 | 0.55 |
| SK-LU-1 | 1.11 | 0.937 | 0.958 | 0.899 | 0.676 | 1.1 | 0.572 | 0.281 | 0.145 | 0.194 | 0.899 | 0.788 | 0.795 | 0.973 | 0.964 | 0.657 | 0.699 | 0.587 | 0.667 | 0.694 |
| SK-MES-1 | 1.04 | 0.928 | 0.92 | 0.972 | 0.843 | 0.99 | 0.882 | 0.87 | 0.232 | 0.185 | 1.01 | 0.913 | 0.88 | 0.834 | 0.976 | 0.386 | 0.322 | 0.329 | 0.357 | 0.392 |
| SW 1573 | 0.92 | 0.924 | 1.18 | 1.01 | 0.569 | 1.01 | 0.974 | 0.957 | 0.155 | 0.0628 | 1.09 | 1.04 | 0.929 | 1.05 | 0.949 | 0.568 | 0.485 | 0.528 | 0.486 | 0.559 |
